Data reported in patent publication US7893081B2, “Tyrosine kinase inhibitors” (Merck & Co., Inc., priority 2007, dated 2011).
Where a name gives a salt, the structure may show the parent alone. Blank lines part the entries; values can stand above or below the molecule they belong to.

Columns and labels:
[1] = Solubility in water of the salt forms of Compound 1; format: physicochemical; conditions: for Native pH: pH of the aqueous solubility sample
Hygroscopicity (25° C.) = format: physicochemical; conditions: up to 80% RH
[2] = Chemical and physical stability at 40° C./75% relative humidity; format: physicochemical; conditions: 6 Months at 40° C./75% relative humidity (RH)
human c-Met = human c-Met (Homo sapiens, UniProt P08581); test: biochemical
human c-Met, sequence (P08581 956-1390 limits assumed): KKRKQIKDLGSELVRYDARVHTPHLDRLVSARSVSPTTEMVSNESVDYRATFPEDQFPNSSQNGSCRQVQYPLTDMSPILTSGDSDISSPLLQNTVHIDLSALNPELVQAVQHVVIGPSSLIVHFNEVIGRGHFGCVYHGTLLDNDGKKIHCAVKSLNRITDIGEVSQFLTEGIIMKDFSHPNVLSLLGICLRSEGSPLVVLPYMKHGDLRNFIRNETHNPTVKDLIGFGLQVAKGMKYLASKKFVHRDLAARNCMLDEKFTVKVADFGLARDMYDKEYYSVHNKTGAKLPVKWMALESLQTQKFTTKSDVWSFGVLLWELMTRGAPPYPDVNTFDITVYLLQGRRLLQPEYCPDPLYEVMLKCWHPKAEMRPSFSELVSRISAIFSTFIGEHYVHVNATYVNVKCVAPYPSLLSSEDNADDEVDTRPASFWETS
Experimental: The procedure for determining the potency of a compound to inhibit c-Met kinase comprises the following steps: • 1. Prepare 3-fold serial diluted compound solutions in 100% dimethyl sulfoxide (DMSO) at 20× of the desired final concentrations in a 96 well plate. • 2. […] In a black assay plate, add 2.5 μl of compound solution (or DMSO) and 37.5 μl of master reaction mix per well. Initiate the kinase reaction by adding 10 μl of 0.25 mM MgATP per well. Allow the reactions to proceed for 80 min at room temperature. The final conditions for the reaction are 0.2 nM c-Met, 0.5 μM substrate, 50 μM MgATP, 5 mM MgCl2, 100 mM NaCl, 2 mM DTT, 0.1 mg/ml BSA, 50 mM Tris (pH 7.4) and 5% DMSO. • 4. […] Read HTRF signals on a Victor reader (PerkinElmer) in HTRF mode after 60 min. • 6.

[3] = listed as Crystalline potassium salt, potassium salt monohydrate
[4] = listed as Crystalline Sodium salt, sodium salt dihydrate

Native pH [1, 3]: pH = 10.7 | Solubility in water [1, 3]: >170 mg/mL | Hygroscopicity (25° C.) (Hygroscopicity (25° C.); [3]): 0.81% up
Compound: CN(C[C@@H]1COCCO1)S(=O)(=O)Nc1ccc2ccc3ncc(-c4cnn(C)c4)cc3c(=O)c2c1 [Compound 1 potassium salt monohydrate, N-[(2R)-1,4-dioxan-2-ylmethyl]-N-methyl-N′-[3-(1-methyl-1H-pyrazol-4-yl)-5-oxo-5H-benzo[4,5]cyclohepta[1,2-b]pyridin-7-yl]sulfamide potassium salt monohydrate]

Native pH [1, 4]: pH = 10.5 | Solubility in water [1, 4]: >400 mg/mL | chemical and physical stability [2]: chemically and physically stable | Hygroscopicity (25° C.) (Hygroscopicity (25° C.); [4]): 0.14% up
Compound: CN(C[C@@H]1COCCO1)S(=O)(=O)Nc1ccc2ccc3ncc(-c4cnn(C)c4)cc3c(=O)c2c1 [Compound 1 sodium salt dihydrate, N-[(2R)-1,4-dioxan-2-ylmethyl]-N-methyl-N′-[3-(1-methyl-1H-pyrazol-4-yl)-5-oxo-5H-benzo[4,5]cyclohepta[1,2-b]pyridin-7-yl]sulfamide sodium salt dihydrate]

IC50 (human c-Met): ≥ 50 µM | Solubility in water ([1]; listed as Free Acid): 0.003 mg/mL | Hygroscopicity (25° C.) (Hygroscopicity (25° C.); listed as Free Acid): 0.4% up to
Compound: CN(C[C@@H]1COCCO1)S(=O)(=O)Nc1ccc2ccc3ncc(-c4cnn(C)c4)cc3c(=O)c2c1 [Compound 1, N-[(2R)-1,4-dioxan-2-ylmethyl]-N-methyl-N′-[3-(1-methyl-1H-pyrazol-4-yl)-5-oxo-5H-benzo[4,5]cyclohepta[1,2-b]pyridin-7-yl]sulfamide]
